Marks after values point to notes of the source that are not given here.
What was measured:
[1] = system: Staphylococcus epidermidis (ATCC 12228); test: In vitro sniff test and viability in reconstituted sweat, S. epidermidis; assay type: cell-based; parameters: key to Odor (Sniff) 6 h / Odor (Sniff) 24 h: 1. Absent (comparable to 0.1% chlorhexidine positive control); 2. Moderate; 3. Intense (bacteria-specific olfactory signature); conditions: 0.1% (BCP or chlorhexidine digluconate)
Protocol: (§1) Staphylococcus epidermidis (ATCC 12228) and Corynebacterium striatum (ATCC 6940) strains were used. Each of these strains has a typical olfactory signature, the result of the metabolism of sweat components: • S. epidermidis: Valeric and propionic acid; • C. striatum: Sulphanyl alcohols. Each bacterial strain was inoculated into a reconstituted sweat solution in the presence of the BCP extract at 0.1%; 0.6% or 2% or 0.1% chlorhexidine digluconate (positive control). After 6 h and 24 h of incubation: The bacterial viability was evaluated by bacterial count expressed in CFU/ml. A sniff test was carried out to determine the olfactory signature qualitatively and semi-quantitatively (intensity of the smell) immediately after opening the vial, the smell was evaluated and scored by a trained operator: • 1. […] Moderate • 3. Intense (bacteria-specific olfactory signature)

[2] = system: Corynebacterium striatum (ATCC 6940); test: In vitro sniff test and viability in reconstituted sweat, C. striatum; assay type: cell-based; parameters: key to Odor (Sniff) 6 h / Odor (Sniff) 24 h: 1. Absent (comparable to 0.1% chlorhexidine positive control); 2. Moderate; 3. Intense (bacteria-specific olfactory signature); conditions: 0.1% (BCP or chlorhexidine digluconate)
Protocol: as §1

[3] = system: IL1α (interleukin 1α); test: IL1-alpha produced by NHKs under PMA stress (ELISA); assay type: cell-based, human
Protocol: (§2) Normal Human Keratinocytes (NHK) were treated for 24 hours at 37° C. with the Bombax costatum Polysaccharide extract according to Example 1 (called BCP extract) at 0.01% and/or 0.05% of dry matter (DM) or by Dexamethasone or Indomethacin at 10^-7M (anti-inflammatory reference molecules). The cells were then treated by adding PMA at 10 μg/ml (Phorbol Myristate Acetate, inflammation-inducing agent) for 16 hours at 37° C. At the end of the treatment, the quantities of IL1α (interleukin 1α), PGE2 (Prostaglandin-E2), IL1β (Interleukin 1β), TNFα (Tumor Necrosis Factor α), IL6 (Interleukin 6) and IL8 (Interleukin 8) secreted were measured by the ELISA technique in the culture supernatants.
(§3) The significance of the results was assessed by a one-way analysis of variance followed by a Tuckey test.

[4] = system: IL1β (Interleukin 1β); test: IL1-beta produced by NHKs under PMA stress (ELISA); assay type: cell-based, human
Protocol: as §2, §3

[5] = system: IL6 (Interleukin 6); test: IL6 produced by NHKs under PMA stress (ELISA); assay type: cell-based, human
Protocol: as §2, §3

[6] = system: IL8 (Interleukin 8); test: IL8 produced by NHKs under PMA stress (ELISA); assay type: cell-based, human
Protocol: as §2, §3

[7] = system: TNFα (Tumor Necrosis Factor α); test: TNF-alpha produced by NHKs under PMA stress (ELISA); assay type: cell-based, human
Protocol: as §2, §3

[8] = system: PGE2 (Prostaglandin-E2); test: PGE2 produced by NHKs under PMA stress (ELISA); assay type: cell-based, human
Protocol: as §2, §3

[9] = system: hBD2; test: hBD2 gene expression in keratinocytes (real-time quantitative RT-PCR); assay type: cell-based, human; conditions: IL1β 100 ng/ml
Protocol: (§4) Normal human epidermal keratinocytes were treated for 24 or 48 hours with BCP extract or IL1β at 100 ng/ml (positive reference). At the end of the treatment, the gene expression of hBD2, hBD3 and TLR2 was analyzed by real-time quantitative RT-PCR.

[10] = system: hBD3; test: hBD3 gene expression in keratinocytes (real-time quantitative RT-PCR); assay type: cell-based, human; conditions: IL1β 100 ng/ml
Protocol: as §4

[11] = system: TLR2; test: TLR2 gene expression in keratinocytes (real-time quantitative RT-PCR); assay type: cell-based, human; conditions: IL1β 100 ng/ml
Protocol: as §4

[12] = system: hBD2; test: Intracellular hBD2 production in keratinocytes (ELISA); assay type: cell-based, human; conditions: IL1β 100 ng/ml
Protocol: (§5) Normal human epidermal keratinocytes were treated for 24 or 48 hours with BCP extract or IL1β at 100 ng/ml (positive reference). Moreover, the quantities of TLR2 and intracellular hBD2 were measured by ELISA.

[13] = system: TLR2; test: TLR2 production in keratinocytes (ELISA); assay type: cell-based, human; conditions: IL1β 100 ng/ml
Protocol: as §5

[14] = Dexamethasone 0.1 μM 24 hours, then PMA 10 μg/ml 16 hours
[15] = Dexamethasone 0.1 μM, vs PMA 10 μg/ml

[H]/N=C(\N/C(=N/[H])NCCCCCCNC(=N)NC(=N)Nc1ccc(Cl)cc1)Nc1ccc(Cl)cc1 [Chlorhexidine, chlorhexidine digluconate]
Viability 24 h ([1]; control 8.69 ± 0.09): 0.00 ± 0.00 Log10 CFU/ml
Viability 6 h ([1]; control 8.91 ± 0.21): 0.00 ± 0.00 Log10 CFU/ml
Odor (Sniff) 6 h ([1]; control Intense): Absent
Odor (Sniff) 24 h ([1]; control Intense): Absent
Viability 6 h ([2]; control 8.51 ± 0.08): 0.00 ± 0.00 Log10 CFU/ml
Viability 24 h ([2]; control 8.64 ± 0.19): 0.00 ± 0.00 Log10 CFU/ml
Odor (Sniff) 6 h ([2]; control Moderate): Absent
Odor (Sniff) 24 h ([2]; control Moderate): Intense

C[C@@H]1C[C@H]2[C@@H]3CCC4=CC(=O)C=C[C@]4(C)[C@@]3(F)[C@@H](O)C[C@]2(C)[C@@]1(O)C(=O)CO [Dexamethasone]
IL1α Average [3, 14]: 230.583 pg/mL
IL1α Evolution [3, 15]: −38%
IL1β Average [4, 14]: 34.410 pg/mL
IL1β Evolution [4, 15]: −32%
IL6 Average [5, 14]: 2.090 pg/mL
IL6 Evolution [5, 15]: −70%
IL8 Average [6, 14]: 4076.675 pg/mL
IL8 Evolution [6, 15]: −59
TNFα Average [7, 14]: 16.216 pg/mL
TNFα Evolution [7, 15]: −52%
PGE2 Average [8, 14]: 39.000 pg/mL
PGE2 Evolution [8, 15]: −94%

IL1β: IL1β at 100 ng/ml (positive reference)
hBD2 RQ ([9]; 24 or 48 hours, control 1.12): 3480.89
hBD2 Evolution ([9]; vs Control): ×3000 ***
hBD3 RQ ([10]; 24 or 48 hours, control 1.09): 9.04
hBD3 Evolution ([10]; vs Control): +730% ***
TLR2 RQ ([11]; 24 or 48 hours, control 1.08): 3.26
TLR2 Evolution ([11]; vs Control): +201% ***
hBD2 intracellular protein ([12]; 24 or 48 hours, control 141.5 ± 15.2): 2162.7 ± 51.1 pg/mL
hBD2 protein Evolution ([12]; vs Control): +1428% ***
TLR2 protein ([13]; 24 or 48 hours, control 735.9 ± 39.2): 913.7 ± 30.5 pg/mL
TLR2 protein Evolution ([13]; vs Control): +24% **

From patent US20230277613A1, “Polysaccharide-Rich Bombax Costatum Flower Extract” (priority 2020, published 2023)
